Assay [1] has as its target T1, FLT3-D835Y (Homo sapiens, UniProt P36888, D835Y).
T1 construct: purchased Invitrogen PV3967
T1 sequence (P36888 27-993 D835Y): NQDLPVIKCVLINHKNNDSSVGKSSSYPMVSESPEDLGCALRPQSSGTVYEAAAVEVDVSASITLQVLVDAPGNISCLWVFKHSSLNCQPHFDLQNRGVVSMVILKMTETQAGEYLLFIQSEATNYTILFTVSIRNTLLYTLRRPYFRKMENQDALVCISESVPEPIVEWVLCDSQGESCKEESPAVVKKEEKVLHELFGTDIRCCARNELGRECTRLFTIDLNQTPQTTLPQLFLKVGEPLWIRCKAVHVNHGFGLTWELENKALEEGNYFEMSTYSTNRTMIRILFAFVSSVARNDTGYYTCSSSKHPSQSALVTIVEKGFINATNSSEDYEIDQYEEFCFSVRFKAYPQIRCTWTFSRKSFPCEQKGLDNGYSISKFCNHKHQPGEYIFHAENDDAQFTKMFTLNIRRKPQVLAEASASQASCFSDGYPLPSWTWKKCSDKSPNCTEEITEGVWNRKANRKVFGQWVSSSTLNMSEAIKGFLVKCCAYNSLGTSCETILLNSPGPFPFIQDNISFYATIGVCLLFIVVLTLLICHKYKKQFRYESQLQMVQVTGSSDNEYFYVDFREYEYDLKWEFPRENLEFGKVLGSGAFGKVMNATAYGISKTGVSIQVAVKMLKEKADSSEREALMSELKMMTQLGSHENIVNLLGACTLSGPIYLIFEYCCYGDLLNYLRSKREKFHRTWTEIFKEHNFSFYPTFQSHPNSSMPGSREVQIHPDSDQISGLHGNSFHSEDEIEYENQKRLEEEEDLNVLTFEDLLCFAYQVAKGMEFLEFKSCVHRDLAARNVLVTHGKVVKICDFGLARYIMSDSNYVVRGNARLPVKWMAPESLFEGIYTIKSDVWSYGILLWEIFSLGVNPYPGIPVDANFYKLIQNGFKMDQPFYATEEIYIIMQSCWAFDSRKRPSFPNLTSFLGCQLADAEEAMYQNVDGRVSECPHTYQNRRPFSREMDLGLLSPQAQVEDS
The assay is described as follows: FLT3-D835Y biochemical kinase assay (AlphaScreen). An outline of the steps: (§1)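 Recombinant kinase, biotin-GG(EEEEY)10EE 30 nM final, ATP 10 μM (D835Y) / 100 μM (ITD). Stop/detect: SA donor beads 20 min RT, then PY20 acceptor beads 60 min RT. AlphaScreen 580 nm signal; IC50.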
(In general: Bead proximity is the source of the signal in Alpha formats.)

Assay [2] deals with T2, FLT3-ITD (Homo sapiens, UniProt P36888).
T2 construct: FLT3-ITD; Invitrogen #PV6190
T2 sequence (P36888 1-993): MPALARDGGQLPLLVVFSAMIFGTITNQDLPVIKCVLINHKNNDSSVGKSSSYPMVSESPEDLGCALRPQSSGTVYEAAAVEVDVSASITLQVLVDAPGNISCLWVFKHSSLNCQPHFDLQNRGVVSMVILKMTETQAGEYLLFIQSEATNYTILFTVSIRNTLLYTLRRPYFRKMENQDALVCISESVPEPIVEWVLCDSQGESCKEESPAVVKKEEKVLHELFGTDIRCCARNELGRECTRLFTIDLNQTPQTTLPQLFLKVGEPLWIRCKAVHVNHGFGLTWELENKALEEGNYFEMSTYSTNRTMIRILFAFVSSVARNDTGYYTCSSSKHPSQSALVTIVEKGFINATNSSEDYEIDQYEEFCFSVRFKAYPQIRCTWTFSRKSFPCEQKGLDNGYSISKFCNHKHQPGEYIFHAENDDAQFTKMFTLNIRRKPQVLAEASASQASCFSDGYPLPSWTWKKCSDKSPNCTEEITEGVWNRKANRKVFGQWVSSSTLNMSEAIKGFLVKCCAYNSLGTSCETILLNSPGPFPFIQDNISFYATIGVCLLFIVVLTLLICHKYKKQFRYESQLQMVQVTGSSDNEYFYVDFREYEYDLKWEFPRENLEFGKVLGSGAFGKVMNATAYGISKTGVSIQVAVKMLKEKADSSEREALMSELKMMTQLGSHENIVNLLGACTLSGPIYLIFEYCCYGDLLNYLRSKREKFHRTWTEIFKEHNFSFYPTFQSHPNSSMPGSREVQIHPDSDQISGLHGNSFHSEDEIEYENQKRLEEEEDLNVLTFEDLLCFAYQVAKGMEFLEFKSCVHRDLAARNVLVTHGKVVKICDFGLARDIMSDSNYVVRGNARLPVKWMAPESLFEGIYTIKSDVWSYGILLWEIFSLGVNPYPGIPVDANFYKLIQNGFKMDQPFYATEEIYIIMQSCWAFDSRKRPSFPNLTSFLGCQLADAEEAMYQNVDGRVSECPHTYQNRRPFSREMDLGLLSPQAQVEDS
The assay is described as follows: FLT3-ITD biochemical kinase assay (AlphaScreen). An outline of the steps: as §1

Usually IC50 stands for the concentration at which inhibition is half-maximal. Low values mean higher potency, high ones lower potency.

Molecules are shown by their SMILES.

With `Cn1cnc2ccc(-c3c[nH]c4ncc(-c5cnn(-c6ccccn6)c5)cc34)cc21` [P-174, 1-methyl-6-[5-[1-(2-pyridyl)pyrazol-4-yl]-1H-pyrrolo[2,3-b]pyridin-3-yl]benzimidazole], the IC50 in assay [1] and in assay [2] was 0.0001 to 1 µM each time.
Consider `CN(C)c1ncc(-c2cnc3[nH]cc(-c4ccc5ncn(C(C)(C)C)c5c4)c3n2)cn1` [P-378, 5-[7-(3-tert-butylbenzimidazol-5-yl)-5H-pyrrolo[2,3-b]pyrazin-2-yl]-N,N-dimethyl-pyrimidin-2-amine], for which the IC50 in assay [1] and in assay [2] was 0.0001 to 1 µM throughout.
As for `CC(C)(C)n1cnc2ccc(-c3c[nH]c4ncc(-c5ccc(C#N)c(N6CCCC6)c5)nc34)cc21` [P-335, 4-[7-(3-tert-butylbenzimidazol-5-yl)-5H-pyrrolo[2,3-b]pyrazin-2-yl]-2-pyrrolidin-1-yl-benzonitrile], the 50% inhibitory concentration (IC50) in assay [1] and in assay [2] was 0.0001 to 1 µM throughout.
`CC(C)(C)n1cnc2ccc(-c3c[nH]c4ncc(-c5cnc(NC6CC6)nc5)nc34)cc21` [P-362, 5-[7-(3-tert-butylbenzimidazol-5-yl)-5H-pyrrolo[2,3-b]pyrazin-2-yl]-N-cyclopropyl-pyrimidin-2-amine]: the half-inhibitory concentration (IC50) in assay [1] and in assay [2] was 0.0001 to 1 µM throughout.
`Cn1cnc2ccc(-c3c[nH]c4ncc(-c5cccc(C(=O)NC6CC6)c5)nc34)cc21` [P-147, N-cyclopropyl-3-[7-(3-methylbenzimidazol-5-yl)-5H-pyrrolo[2,3-b]pyrazin-2-yl]benzamide]: the IC50 in assay [1] and in assay [2] was 0.0001 to 1 µM each time.
As for `FC(F)(F)Cn1cc(-c2cnc3[nH]cc(-c4ccc5ncsc5c4)c3n2)cn1` [P-166, 6-[2-[1-(2,2,2-trifluoroethyl)pyrazol-4-yl]-5H-pyrrolo[2,3-b]pyrazin-7-yl]-1,3-benzothiazole], the IC50 in assay [1] and in assay [2] was 0.0001 to 1 µM throughout.
In the case of `CC(C)(C)n1cnc2ccc(-c3c[nH]c4ncc(-c5cnc(C#N)c(Cl)c5)nc34)cc21` [P-361, 5-[7-(3-tert-butylbenzimidazol-5-yl)-5H-pyrrolo[2,3-b]pyrazin-2-yl]-3-chloro-pyridine-2-carbonitrile], the half-maximal inhibitory concentration (IC50) in assay [1] and in assay [2] was 0.0001 to 1 µM throughout.
With `CC(C)(C)n1cnc2ccc(-c3c[nH]c4ncc(C#Cc5ccccc5)nc34)cc21` [P-142, 7-(3-tert-butylbenzimidazol-5-yl)-2-(2-phenylethynyl)-5H-pyrrolo[2,3-b]pyrazine], the 50% inhibitory concentration (IC50) in assay [1] and in assay [2] was 0.0001 to 1 µM throughout.
Consider `CC(C)(C)n1cnc2ccc(-c3c[nH]c4ncc(-c5ccc(S(=O)(=O)N6CCCC6)cc5)nc34)cc21` [P-239, 7-(3-tert-butylbenzimidazol-5-yl)-2-(4-pyrrolidin-1-ylsulfonylphenyl)-5H-pyrrolo[2,3-b]pyrazine], for which the 50% inhibitory concentration (IC50) in assay [1] and in assay [2] was 0.0001 to 1 µM throughout.
With `CC(C)n1cnc2ccc(-c3c[nH]c4ncc(-c5cccc(NS(C)(=O)=O)c5)nc34)cc21` [P-080, N-[3-[7-(3-isopropylbenzimidazol-5-yl)-5H-pyrrolo[2,3-b]pyrazin-2-yl]phenyl]methanesulfonamide], the IC50 in assay [1] and in assay [2] was 0.0001 to 1 µM each time.
Consider `CCCS(=O)(=O)Nc1cccc(-c2cnc3[nH]cc(-c4ccc5ncsc5c4)c3n2)c1` [P-168, N-[3-[7-(1,3-benzothiazol-6-yl)-5H-pyrrolo[2,3-b]pyrazin-2-yl]phenyl]propane-1-sulfonamide], for which the IC50 in assay [1] and in assay [2] was 0.0001 to 1 µM throughout.
Turning to `O=S1(=O)CCCN1c1cccc(-c2cnc3[nH]cc(-c4ccc5ncsc5c4)c3n2)c1` [P-170, 2-[3-[7-(1,3-benzothiazol-6-yl)-5H-pyrrolo[2,3-b]pyrazin-2-yl]phenyl]-1,2-thiazolidine 1,1-dioxide], the half-inhibitory concentration (IC50) in assay [1] and in assay [2] was 0.0001 to 1 µM in each case.
For the compound `FC(F)(F)Oc1cccc(-c2cnc3[nH]cc(-c4ccc5ncn(C6CCCNC6)c5c4)c3c2)c1` (centres unmarked) [P-203, 1-(3-piperidyl)-6-[5-[3-(trifluoromethoxy)phenyl]-1H-pyrrolo[2,3-b]pyridin-3-yl]benzimidazole], the IC50 in assay [1] and in assay [2] was 0.0001 to 1 µM throughout.
With `Fc1ccc(-n2cnc3ccc(-c4c[nH]c5ncc(-c6cccc(OC(F)(F)F)c6)nc45)cc32)cc1` [P-192, 7-[3-(4-fluorophenyl)benzimidazol-5-yl]-2-[3-(trifluoromethoxy)phenyl]-5H-pyrrolo[2,3-b]pyrazine], the concentration for half-maximal inhibition (IC50) in assay [1] and in assay [2] was 0.0001 to 1 µM in each case.
As for `CC(=O)Nc1cccc(-c2cnc3[nH]cc(-c4ccc5ncsc5c4)c3n2)c1` [P-159, N-[3-[7-(1,3-benzothiazol-6-yl)-5H-pyrrolo[2,3-b]pyrazin-2-yl]phenyl]acetamide], the IC50 in assay [1] and in assay [2] was 0.0001 to 1 µM throughout.
Take `CCCS(=O)(=O)Nc1cccc(-c2cnc3[nH]cc(-c4ccc5ncn(C)c5c4)c3n2)c1` [P-155, N-[3-[7-(3-methylbenzimidazol-5-yl)-5H-pyrrolo[2,3-b]pyrazin-2-yl]phenyl]propane-1-sulfonamide]: the IC50 in assay [1] and in assay [2] was 0.0001 to 1 µM in each case.
For `COc1cnc2[nH]cc(-c3ccc4c(c3)N(C)CCO4)c2c1` [P-107, 6-(5-methoxy-1H-pyrrolo[2,3-b]pyridin-3-yl)-4-methyl-2,3-dihydro-1,4-benzoxazine], the half-inhibitory concentration (IC50) in assay [1] and in assay [2] was 0.0001 to 1 µM throughout.
As for `COc1cc(-c2cnc3[nH]cc(-c4ccc5ncn(CC(F)(F)F)c5c4)c3c2)ccn1` [P-108, 5-(2-methoxy-4-pyridyl)-3-[3-(2,2,2-trifluoroethyl)benzimidazol-5-yl]-1H-pyrrolo[2,3-b]pyridine], the half-inhibitory concentration (IC50) in assay [1] and in assay [2] was 0.0001 to 1 µM in each case.
For `CC(C)(C)n1cnc2ccc(-c3c[nH]c4ncc(-c5cccc(OC(F)(F)F)c5)cc34)cc21` [P-202, 1-tert-butyl-6-[5-[3-(trifluoromethoxy)phenyl]-1H-pyrrolo[2,3-b]pyridin-3-yl]benzimidazole], the half-inhibitory concentration (IC50) in assay [1] and in assay [2] was 0.0001 to 1 µM in each case.
Turning to `Cn1cnc2ccc(-c3c[nH]c4ncc(-c5ccc(F)c(C#N)c5)cc34)cc21` [P-141, 2-fluoro-5-[3-(3-methylbenzimidazol-5-yl)-1H-pyrrolo[2,3-b]pyridin-5-yl]benzonitrile], the half-maximal inhibitory concentration (IC50) in assay [1] and in assay [2] was 0.0001 to 1 µM in each case.
Regarding `Cn1cnc2ccc(-c3c[nH]c4ncc(-c5ccc(C#N)s5)cc34)cc21` [P-179, 5-[3-(3-methylbenzimidazol-5-yl)-1H-pyrrolo[2,3-b]pyridin-5-yl]thiophene-2-carbonitrile], the half-inhibitory concentration (IC50) in assay [1] and in assay [2] was 0.0001 to 1 µM throughout.
For `Cn1cnc2ccc(-c3c[nH]c4ncc(-c5cccc(C#N)c5)nc34)cc21` [P-146, 3-[7-(3-methylbenzimidazol-5-yl)-5H-pyrrolo[2,3-b]pyrazin-2-yl]benzonitrile], the concentration for half-maximal inhibition (IC50) in assay [1] and in assay [2] was 0.0001 to 1 µM throughout.

The record behind these values is US10160755B2 (Plexxikon Inc., priority 2015, dated 2018).
